# Data reported in patent US5512466A, “Control of fruit ripening and senescence in plants” (Monsanto Company, priority 1991, dated 1996).
# Key:
# [1] = tested on: ACC deaminase from bacterial strain PR-1 (B27813, Puerto Rico soil); settings: read-out: Km (ACC), crude desalted extract, Tris pH 8.0, 30° C., double reciprocal plot
# Description: (§1) The Km for the ACC deaminases isolated from the various soil sources was determined using crude, desalted extracts. Individual strains of bacteria were grown in liquid media containing 4 g KH2 PO4, 6.5 g K2 HPO4, 1 g MgSO4.7H2 O, 2 g glucose, 1 mg FeSO4, 1 mg MnCl2, 1 mg ZnSO4, 1 mg CuSO4, 1 mg CaCl2, and 300 mg ACC, all in 1 liter H2 O. Cells were grown for 2 to 3 days at 30° C. Cells were pelleted by centrifugation and resuspended in extraction buffer containing 0.1M phosphate, pH 7.5, 1 mM EDTA, 0.1% β-mercaptoethanol. The cells were broken with a French Press, 1000 psi, and the cell debris was pelleted by centrifugation. […] Glycerol was added to the extract (20% v/v) and enzyme solutions were stored at -20° C. ACC deaminase enzyme assays were conducted as described in the Examples to follow. The assay mixture contained 100 μl of 0.2M Tris buffer, pH 8.0, 30 μl of 500 mM ACC solution, and enzyme solution to make a final volume of 200 μl. Reactions were run for 10 minutes at 30° C. The reaction was stopped with 1.8 ml of 2N HCl. After adding 300 μl 0.1% 2,4-dinitrophenylhydrazine, the mixture was incubated for 15 minutes at 30° C. The solution was then made basic by adding 2 ml of 2N NaOH. The optical density of the resulting brownish-red solution was determined at 540 nm with a spectrophotometer.
# (§2) The kinetic value, Km, for ACC deaminase was determined against ACC as the enzyme substrate for each of the ACC deaminases isolated. […] An estimated Km was determined for each extracted enzyme with ACC at sub-saturating concentrations. […] Actual Km values were then determined for each extract using ACC concentrations between 0.2× and 2× of the estimated Km, or ACC concentrations between 1 and 10 mM ACC. Km values were calculated from double reciprocal plots, plotting the reciprocal of the substrate concentration on the x-axis and the reciprocal of the velocity (α-ketobutyrate formed) on the y-axis.
# [2] = tested on: ACC deaminase from bacterial strain 388 (B27444, St. Charles soil, ACC enriched); settings: read-out: Km (ACC), crude desalted extract, Tris pH 8.0, 30° C., double reciprocal plot
# Description: as §1, §2
# [3] = tested on: ACC deaminase from bacterial strain 401 (B27457, St. Charles soil, ACC enriched); settings: read-out: Km (ACC), crude desalted extract, Tris pH 8.0, 30° C., double reciprocal plot
# Description: as §1, §2
# [4] = tested on: ACC deaminase from bacterial strain 392 (B27448, Peru soil); settings: read-out: Km (ACC), crude desalted extract, Tris pH 8.0, 30° C., double reciprocal plot
# Description: as §1, §2
# [5] = tested on: ACC deaminase from bacterial strain 391 (B27447, Malaysia soil); settings: read-out: Km (ACC), crude desalted extract, Tris pH 8.0, 30° C., double reciprocal plot
# Description: as §1, §2
# [6] = tested on: ACC deaminase from bacterial strain T44 (B27817, Tanzania soil); settings: read-out: Km (ACC), crude desalted extract, Tris pH 8.0, 30° C., double reciprocal plot
# Description: as §1, §2
# [7] = tested on: ACC deaminase from Pseudomonas isolate 3F2 (gene SEQ ID NO:15, amino acid SEQ ID NO:16); settings: read-out: Km (ACC); strain 3F2; crude desalted extract, Tris pH 8.0, 30° C., double reciprocal plot
# Description: as §1, §2
# [8] = tested on: ACC deaminase from bacterial strain 393 (B27449, St. Charles soil); settings: read-out: Km (ACC), crude desalted extract, Tris pH 8.0, 30° C., double reciprocal plot
# Description: as §1, §2
smiles,measurement,setting,value
"NC1(C(=O)O)CC1 [ACC, 1-aminocyclopropane-1-carboxylic acid]",Km,[1],4.1 mM
same,Km,[2],8.6 mM
same,Km,[3],7.8 mM
same,Km,[4],7.1 mM
same,Km,[5],17.4 mM
same,Km,[6],11.8 mM
same,Km,[7],5.8 mM
same,Km,[8],5.9 mM
